The values below come from US7064120B2, “Tricyclic pyridyl carboxamides and derivatives thereof tocolytic oxytocin receptor antagonists” (Wyeth, priority 2001, dated 2006).

The target in this experiment is T1, human vasopressin V1a receptor subtype (Homo sapiens, UniProt P37288).
T1 construct: host or cells: CHO cells, stably transfected (pZeoSV vector for the Thibonnier line)
T1 sequence (P37288 whole entry): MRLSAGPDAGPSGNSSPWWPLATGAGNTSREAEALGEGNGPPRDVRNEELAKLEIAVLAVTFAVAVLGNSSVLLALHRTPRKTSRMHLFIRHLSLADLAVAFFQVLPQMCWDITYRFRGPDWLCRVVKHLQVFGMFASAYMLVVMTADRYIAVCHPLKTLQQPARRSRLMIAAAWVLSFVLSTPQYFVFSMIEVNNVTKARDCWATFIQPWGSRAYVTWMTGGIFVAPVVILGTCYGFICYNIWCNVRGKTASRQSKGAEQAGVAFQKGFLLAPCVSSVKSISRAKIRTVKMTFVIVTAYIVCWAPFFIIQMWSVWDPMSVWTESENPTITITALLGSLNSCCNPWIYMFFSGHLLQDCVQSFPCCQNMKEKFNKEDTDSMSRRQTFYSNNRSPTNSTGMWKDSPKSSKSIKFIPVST
Put plainly: Vasopressin binding in CHO cell membranes expressing human vasopressin V1a subtype receptors ([3H]Manning ligand radioligand binding). To be noted: 100 nM. Here is the method: Vasopressin Binding in Chinese Hamster Ovary Cell Membranes Expressing Human Vasopressin V1a Subtype Receptors
The trypsin is removed by aspiration and the cells dislodged by tapping. Cell Culture medium (e.g. 30 mL for 1:30 split) is immediately added and mixed well to inactivate trypsin. 1 mL of detached cells is added to new culture flasks containing fresh cell culture medium (e.g., into 25 mL per T-150 flask), and mixed gently. The cells are incubated at 37° C. in 5% CO2. The medium is changed at 3 to 4 days interval (or as appropriate). […] All steps are done under sterile conditions.
The cells are washed twice gently with Hank's Balanced Salt solution (e.g,. use 10 mL per T-150 flask). […] The contents are transferred to centrifuge tubes (50 mL) kept in an ice bath. All subsequent steps are done at 4° C. The tubes are centrifuged at 300×g for 15 min (1380 rpm on SORVAL, Model RT6000D, using the rotor for 50 mL tubes). The supernatant is discarded and the cells suspended in homogenizing buffer(10 mM Tris-HCl containing 0.25 M sucrose and 1 mM EDTA, pH 7.4) ensuring that the volume of the buffer is about ten times the volume of the cell pellet. The cells are pooled into a centrifuge tube (50 mL) and homogenized with Polytron at setting 6 for 10 sec. The homogenate is transferred into a Potter-Elvjehm homogenizer and homogenized with 3 strokes. The homogenate is centrifuged at 1500×g for 10 min at 4° C. (3100 rpm using SORVAL, model RT6000D, using the rotor for 50 mL tubes). The pellet is discarded. The supernatant is centrifuged at 100,000×g for 60 min. at 4° C. (Beckman L8-80M ultracentrifuge; spin at 37,500 rpm with rotor type 70 Ti for 50 mL tubes; 38,000 rpm with type 80Ti for 15 mL tubes; or 35,800 rpm with rotor type 45Ti). The supernantant is discarded and the pellet suspended in 3 to 4 mL of Tris buffer (50 mM TRIS-HCl, pH 7.4). The protein content is estimated by the Bradford or Lowry method. The volume of the membrane suspension is adjusted with the membrane buffer (50 mM Tris-HCl containing 0.1% BSA and 0.1 mM PMSF) to give 3.0 mg/mL (or as appropriate) of protein. The membranes are aliquoted and stored at −70° C.
In wells of a 96-well format microtiter plate, is added 90, 110 or 130 μL (to make up a final volume of 200 μL) of assay buffer containing 50 mM of Tris-HCl (pH 7.4), BSA (heat inactivated, protease-free), […], 1 mg % aprotinin, 1 mg % leupeptin, 2 mg % 1,10-phenanthroline, 10 mg % trypsin inhibitor, and 0.1 mM PMSF. The inhibitors are added on the day of the experiment. The components are mixed at room temperature, and then kept in ice bath following adjustment of the pH to 7.4. […] 20 μL of 50% DMSO is added for Manning and other peptide ligands and the assay buffer volume is adjusted accordingly. To each well is added 50 μL of frozen membrane suspension thawed immediately prior to use and diluted in the assay buffer to the required concentration (equivalent to 25 to 50 μg of protein/well as needed). 20 μL of 8 nM [^3H]Manning ligand in the assay buffer, prepared just before use, is added, and incubated at room temperature for 60 min. shaking the plate on a mechanical shaker for the first 15 min. The incubation is stopped by rapid filtration of the plate contents followed by wash with ice-cold buffer (50 mM Tris-HCl, pH 7.4) using a cell harvester (Tomtek and Printed filtermat-B filter paper). The filter paper is thoroughly dried (7–12 min. in a microwave oven) and impregnated with MeltiLex B/H melt-on scintillation wax sheets and the radioactivity counted in a betaplate scintillation counter.
Binding data is either reported as percent inhibition at a certain concentration or if an IC50 was calculated, as a nanomolar concentration.
For the compound `COc1cc(C(=O)N2Cc3ccc(C(=O)NCc4cccnc4)n3Cc3ccccc32)ccc1-c1cccc2ccccc12` [Example 44, 10-[3-Methoxy-4-(naphthalen-1-yl)benzoyl]-N-(3-pyridinylmethyl)-10,11-dihydro-5H-pyrrolo[2,1-c][1,4]benzodiazepine-3-carboxamide], the inhibition – broadly, the change of the read-out against control, counted positive when it falls – at 0.1 µM is 11%.
On the same count and under the same terms, the same measure for `COc1ccccc1-c1ccc(C(=O)N2Cc3ccc(C(=O)NCc4cccnc4)n3Cc3ccccc32)cc1OC` [Example 45, 10-[(2,2′-Dimethoxy-[1,1′-biphenyl]-4-yl)carbonyl]-N-(3-pyridinylmethyl)-10,11-dihydro-5H-pyrrolo[2,1-c][1,4]benzodiazepine-3-carboxamide]: 5%; for `COc1cccc(-c2ccc(C(=O)N3Cc4ccc(C(=O)NCc5cccnc5)n4Cc4ccccc43)cc2OC)c1` [Example 46, 10-[(2,3′-Dimethoxy-[1,1′-biphenyl]-4-yl)carbonyl]-N-(3-pyridinylmethyl)-10,11-dihydro-5H-pyrrolo[2,1-c][1,4]benzodiazepine-3-carboxamide]: 7%; for `O=C(NCc1cccnc1)c1ccc2n1Cc1ccccc1N(C(=O)c1ccc(-c3cccc4ccccc34)cc1Cl)C2` [Example 47, 10-[2-Chloro-4-(naphthalen-1-yl)benzoyl]-N-(3-pyridinylmethyl)-10,11-dihydro-5H-pyrrolo[2,1-c][1,4]benzodiazepine-3-carboxamide]: -1%.
Still for that read-out and setting: then `Cc1cc(C(=O)N2Cc3ccc(C(=O)NCc4cccnc4)n3Cc3ccccc32)ccc1-c1ccccc1C(F)(F)F` [Example 48, 10-{[2-Methyl-2′-trifluoromethyl-[1,1′-biphenyl]-4-yl]carbonyl}-N-(3-pyridinylmethyl)-10,11-dihydro-5H-pyrrolo[2,1-c][1,4]benzodiazepine-3-carboxamide], with 0%; and `COc1ccccc1-c1ccc(C(=O)N2Cc3ccc(C(=O)NCCc4ccccn4)n3Cc3ccccc32)cc1C` [Example 49, 10-[(2′-Methoxy-2-methyl-[1,1′-biphenyl]-4-yl)carbonyl]-N-[2-(2-pyridinyl)ethyl]-10,11-dihydro-5H-pyrrolo[2,1-c][1,4]benzodiazepine-3-carboxamide], with 1%; and `Cc1ccccc1-c1ccc(C(=O)N2Cc3ccc(C(=O)NCCc4ccccn4)n3Cc3ccccc32)cc1C` [Example 50, 10-[(2,2′-Dimethyl-[1,1′-biphenyl]-4-yl)carbonyl]-N-[2-(2-pyridinyl)ethyl]-10,11-dihydro-5H-pyrrolo[2,1-c][1,4]benzodiazepine-3-carboxamide], with 26%.
Same read-out and setting: then `COc1cccc(-c2ccc(C(=O)N3Cc4ccc(C(=O)NCCc5ccccn5)n4Cc4ccccc43)cc2C)c1` [Example 51, 10-[(3′-Methoxy-2-methyl-[1,1′-biphenyl]-4-yl)carbonyl]-N-[2-(2-pyridinyl)ethyl]-10,11-dihydro-5H-pyrrolo[2,1-c][1,4]benzodiazepine-3-carboxamide], with 2%; and `COc1ccccc1-c1ccc(C(=O)N2Cc3ccc(C(=O)NCCc4ccccn4)n3Cc3ccccc32)cc1` [Example 52, 10-[(2′-Methoxy-[1,1′-biphenyl]-4-yl)carbonyl]-N-[2-(2-pyridinyl)ethyl]-10,11-dihydro-5H-pyrrolo[2,1-c][1,4]benzodiazepine-3-carboxamide], with 16%; and `Cc1ccccc1-c1ccc(C(=O)N2Cc3ccc(C(=O)NCCc4ccccn4)n3Cc3ccccc32)cc1` [Example 53, 10-[(2′-Methyl-[1,1′-biphenyl]-4-yl)carbonyl]-N-[2-(2-pyridinyl)ethyl]-10,11-dihydro-5H-pyrrolo[2,1-c][1,4]benzodiazepine-3-carboxamide], with 11%.
With `COc1cc(C(=O)N2Cc3ccc(C(=O)NCCc4ccccn4)n3Cc3ccccc32)ccc1-c1ccccc1C` [Example 54, 10-[(2-Methoxy-2′-methyl-[1,1′-biphenyl]-4-yl)carbonyl]-N-[2-(2-pyridinyl)ethyl]-10,11-dihydro-5H-pyrrolo[2,1-c][1,4]benzodiazepine-3-carboxamide], the inhibition at 0.1 µM came out at 30%.
Still for that read-out and setting: the same measure for `COc1cc(-c2ccccc2C)c(Cl)cc1C(=O)N1Cc2ccc(C(=O)NCCc3ccccn3)n2Cc2ccccc21` [Example 55, 10-[(6-Chloro-3-methoxy-2′-methyl-[1,1′-biphenyl]-4-yl)carbonyl]-N-[2-(2-pyridinyl)ethyl]-10,11-dihydro-5H-pyrrolo[2,1-c][1,4]benzodiazepine-3-carboxamide]: -7%; for `COc1cccc(-c2cc(OC)c(C(=O)N3Cc4ccc(C(=O)NCCc5ccccn5)n4Cc4ccccc43)cc2Cl)c1` [Example 56, 10-[(6-Chloro-3,3′-dimethoxy-[1,1′-biphenyl]-4-yl)carbonyl]-N-[2-(2-pyridinyl)ethyl]-10,11-dihydro-5H-pyrrolo[2,1-c][1,4]benzodiazepine-3-carboxamide]: -11%.
The same measure, in the same setting: then `COc1cc(C(=O)N2Cc3ccc(C(=O)NCCc4ccccn4)n3Cc3ccccc32)ccc1-c1cccc2ccccc12` [Example 57, 10-[3-Methoxy-4-(naphthalen-1-yl)benzoyl]-N-[2-(2-pyridinyl)ethyl]-10,11-dihydro-5H-pyrrolo[2,1-c][1,4]benzodiazepine-3-carboxamide], with 2%; and `COc1ccccc1-c1ccc(C(=O)N2Cc3ccc(C(=O)NCCc4ccccn4)n3Cc3ccccc32)cc1OC` [Example 58, 10-[(2,2′-Dimethoxy-[1,1′-biphenyl]-4-yl)carbonyl]-N-[2-(2-pyridinyl)ethyl]-10,11-dihydro-5H-pyrrolo[2,1-c][1,4]benzodiazepine-3-carboxamide], with 9%; and `COc1cccc(-c2ccc(C(=O)N3Cc4ccc(C(=O)NCCc5ccccn5)n4Cc4ccccc43)cc2OC)c1` [Example 59, 10-[(2,3′-Dimethoxy-[1,1′-biphenyl]-4-yl)carbonyl]-N-[2-(2-pyridinyl)ethyl]-10,11-dihydro-5H-pyrrolo[2,1-c][1,4]benzodiazepine-3-carboxamide], with 12%.
On to `O=C(NCCc1ccccn1)c1ccc2n1Cc1ccccc1N(C(=O)c1ccc(-c3cccc4ccccc34)cc1Cl)C2` [Example 60, 10-[2-Chloro-4-(naphthalen-1-yl)benzoyl]-N-[2-(2-pyridinyl)ethyl]-10,11-dihydro-5H-pyrrolo[2,1-c][1,4]benzodiazepine-3-carboxamide], for which the inhibition at 0.1 µM was determined as 4%.
On to `Cc1cc(C(=O)N2Cc3ccc(C(=O)NCCc4ccccn4)n3Cc3ccccc32)ccc1-c1ccccc1C(F)(F)F` [Example 61, 10-{[2-Methyl-2′-trifluoromethyl=[1,1′-biphenyl]-4-yl]carbonyl}-N-[2-(2-pyridinyl)ethyl]-10,11-dihydro-5H-pyrrolo[2,1-c][1,4]benzodiazepine-3-carboxamide], for which the “V1a % inhibition @ 100 nM” value came to 6%.
Take `COc1ccccc1-c1ccc(C(=O)N2Cc3ccc(C(=O)N(C)CCc4ccccn4)n3Cc3ccccc32)cc1OC` [Example 64, 10-[(2,2′-Dimethoxy-[1,1′-biphenyl]-4-yl)carbonyl]-N-methyl-N-[2-(2-pyridinyl)ethyl]-10,11-dihydro-5H-pyrrolo[2,1-c][1,4]benzodiazepine-3-carboxamide]: the inhibition at 0.1 µM stood at 21%.
As for `COc1cc(C(=O)N2Cc3ccc(C(=O)N4CCN(c5ccccn5)CC4)n3Cc3ccccc32)ccc1-c1cccc2ccccc12` [Example 83], the “V1a % inhibition @ 100 nM” value was found to be 9%.
